In patent publication US20160238590A1, “COMPOSITIONS AND METHODS RELATED TO OAT SENSITIVITY” (IMMUSANT, INC., priority 2013, published 2016):
Where no end group is shown, it is not given here. [ ]: non-standard residue; d: D form. pGlu = O=C1CC[C@@H](C(=O)O)N1

Tests used:
Type in all cases: cell-based, human
PBMC [1] = test: IFN-γ ELISpot on PBMC of CD patients on day 6 after 3-day oats challenge; conditions: after 3-day oats challenge
Text: (§1) Australian Caucasian HLA-DQ2.5^+ and/or HLA-DQ8^+ CD subjects were recruited by advertisement in the Coeliac Society of Victoria newsletter and all had biopsy-proven CD conforming to ESPGHAN criteria. Patients had been on strict gluten free diet for at least 4 weeks prior to commencing grain challenge. Patients underwent 3-day grain challenge with oats, barley, or combined wheat, barley, and rye muffins, and 6 days after commencement, blood was collected. Day 0 responses were not observed in the selection of patients tested, as described previously^8.
(§2) Oats challenge consisted of 100 g dry weight daily of one of three commercial brands of oats: one not tested for wheat contamination (Uncle Toby's; Oats #1), and two shown by R5 ELISA to contain less than 20 ppm wheat gluten (Tilquhilie Pudding; Oats #2 and Freedom Food; Oats #3). Barley challenge consisted of pearl barley (Ward McKenzie) cooked into a risotto (150 g dry weight daily) and the wheat challenge consisted of four 50 g slices of wheat bread daily (Baker's Delight white loaf cut to toasting thickness). The combined wheat, barley, and rye challenge consisted of muffins baked with wheat flour (White Wings), barley flour (Four Leaf Milling), and rye flour (Four Leaf Milling; 22-25 g dry weight each daily). A symptom diary based on a […] Likert scale was completed by participants daily from baseline until day 6.
(§3) Two avenin peptide libraries were utilized for epitope screening. These were designed using avenin sequences from GenBank and a customized algorithm, as previously described^9. The initial library consisted of 199 screening-grade 20 mers including all possible 12 mers (Mimotopes). This library was screened with and without tTG pre-treatment. The second library consisted of additional avenin sequences that were synthesized with glutamate substitution at sites predicted to be deamidated by published algorithms^10, 11 removing the requirement for tTG treatment. This library contained 369 screening-grade 20 mers, including all possible 12 mers (Pepscan). The second round avenin library contained wild-type and deamidated versions of the most immunogenic sequences (25 high quality 16 mers from Mimotopes). High quality peptides containing previously described immunogenic sequences from wheat, barley, and rye were used to test for cross-reactivity^8 (Pepscan). High quality hordein and avenin peptides for TCC testing and biochemical studies were ordered from Pepscan, Mimotopes, or GL Biochem.
(§4) Peripheral blood mononuclear cells (PBMC) were isolated from heparinized whole blood using Ficoll-Paque™ Plus density-gradient centrifugation (GE Healthcare). IFN-γ ELISpot (Mabtech) was set up as previously described^8.

PBMC [2] = test: IFN-γ ELISpot on PBMC of CD patients after 3-day barley challenge; conditions: after barley challenge
Text: as §1, §2, §3, §4

Patient 6 TCC-01 = test: IFN-γ ELISpot with T cell clone; conditions: TCC Patient 6 TCC-01 (Table 5); mean no antigen 2
Protocol: as §4
(§5) Isolation of TCC from CD patients was carried out as previously described^8. Briefly, CFSE-labeled PBMC were incubated with antigen for 7 days in IMDM supplemented with 5% heat-inactivated pooled human serum (PHS), 2 mM GlutaMAX™, 100 μM MEM non-essential amino acids (both from Gibco, Invitrogen), and 50 μM 2-mercaptoethanol (Sigma). Proliferated cells were single-cell sorted into 96-well plates containing IL-2, IL-4, anti-CD3 mAb, irradiated feeder cells (allogeneic PBMC and JY-EBV). TCC were expanded and maintained in IL-2 and IL-4 and tested for specificity by ELISpot with irradiated HLA-matched PBMC as antigen-presenting cells. Expanded clones were tested for HLA-DQ restriction, TCR Vbeta usage, and with lysine scans to work out minimal epitopes. See Table 1 below for TCC and epitope information.

Patient 2 TCC-01 = test: IFN-γ ELISpot with T cell clone; conditions: TCC Patient 2 TCC-01 (Table 5); mean no antigen 1.1
Protocol: as §4, §5

Patient 14 TCC-01 = test: IFN-γ ELISpot with T cell clone; conditions: TCC Patient 14 TCC-01 (Table 5); mean no antigen 11.3, high background, SFU >25 considered as positive responses
Protocol: as §4, §5

| Substance | IFN-γ ELISpot response (raw SFU) (PBMC [1]; patient P1, peptide 1 μg/ml) | IFN-γ ELISpot response (raw SFU) (PBMC [1]; patient P1, peptide 10 μg/ml) | IFN-γ ELISpot response (raw SFU) (PBMC [1]; patient P1, peptide 100 μg/ml) | IFN-γ ELISpot response (raw SFU) (PBMC [1]; patient P2, peptide 1 μg/ml) | IFN-γ ELISpot response (raw SFU) (PBMC [1]; patient P2, peptide 10 μg/ml) | IFN-γ ELISpot response (raw SFU) (PBMC [1]; patient P2, peptide 100 μg/ml) | significant SFU as a percentage of maximal peptide SFU (PBMC [1]; patient P2, peptide 100 μg/ml) | IFN-γ ELISpot response (raw SFU) (PBMC [1]; patient P3, peptide 1 μg/ml) | IFN-γ ELISpot response (raw SFU) (PBMC [1]; patient P3, peptide 10 μg/ml) | IFN-γ ELISpot response (raw SFU) (PBMC [1]; patient P3, peptide 100 μg/ml) | IFN-γ ELISpot response (raw SFU) (PBMC [1]; patient P11, peptide 1 μg/ml) | IFN-γ ELISpot response (raw SFU) (PBMC [1]; patient P11, peptide 10 μg/ml) | IFN-γ ELISpot response (raw SFU) (PBMC [1]; patient P11, peptide 100 μg/ml) | IFN-γ ELISpot response (raw SFU) (PBMC [1]; patient P12, peptide 1 μg/ml) | IFN-γ ELISpot response (raw SFU) (PBMC [1]; patient P12, peptide 10 μg/ml) | IFN-γ ELISpot response (raw SFU) (PBMC [1]; patient P12, peptide 100 μg/ml) | IFN-γ ELISpot response (raw SFU) (PBMC [1]; patient P13, peptide 50 μg/ml) | IFN-γ ELISpot response (raw SFU) (Patient 6 TCC-01) | IFN-γ ELISpot response (raw SFU) (Patient 2 TCC-01) | IFN-γ ELISpot response (raw SFU) (Patient 14 TCC-01) | also measured |
| --- | --- | --- | --- | --- | --- | --- | --- | --- | --- | --- | --- | --- | --- | --- | --- | --- | --- | --- | --- | --- | --- |
| QYQPYPEQEQPILQQQ [partially deamidated avenin peptide containing DQ2.5-ave-1c] | 11 SFU | 33 SFU | 11 SFU | 6 SFU | 34 SFU | 38 SFU | *** (***: >70%) | 19 SFU | 26 SFU | 18 SFU | 3 SFU | 41 SFU | 50 SFU | 1 SFU | 39 SFU | 31 SFU | 4 SFU | 5 SFU | 288 SFU | 21 SFU | significant SFU as a percentage of maximal peptide SFU (PBMC [1]; patient P1, peptide 1 μg/ml): * (*: 20-40%); significant SFU as a percentage of maximal peptide SFU (PBMC [1]; patient P1, peptide 10 μg/ml): *** (***: >70%); significant SFU as a percentage of maximal peptide SFU (PBMC [1]; patient P1, peptide 100 μg/ml): * (*: 20-40%); significant SFU as a percentage of maximal peptide SFU (PBMC [1]; patient P2, peptide 10 μg/ml): ** (**: 40-70%); significant SFU as a percentage of maximal peptide SFU (PBMC [1]; patient P3, peptide 1 μg/ml): * (*: 20-40%); significant SFU as a percentage of maximal peptide SFU (PBMC [1]; patient P3, peptide 10 μg/ml): ** (**: 40-70%); significant SFU as a percentage of maximal peptide SFU (PBMC [1]; patient P3, peptide 100 μg/ml): * (*: 20-40%); significant SFU as a percentage of maximal peptide SFU (PBMC [1]; patient P11, peptide 10 μg/ml): *** (***: >70%); significant SFU as a percentage of maximal peptide SFU (PBMC [1]; patient P11, peptide 100 μg/ml): *** (***: >70%); significant SFU as a percentage of maximal peptide SFU (PBMC [1]; patient P12, peptide 10 μg/ml): ** (**: 40-70%); significant SFU as a percentage of maximal peptide SFU (PBMC [1]; patient P12, peptide 100 μg/ml): ** (**: 40-70%); IFN-γ ELISpot response (raw SFU) (PBMC [2]; Patient 1, peptide 50 μg/ml): 58 SFU; significant SFU as a percentage of maximal peptide SFU (PBMC [2]; Patient 1, peptide 50 μg/ml): ^^ (^^: 10-20%); IFN-γ ELISpot response (raw SFU) (PBMC [2]; Patient 2, peptide 50 μg/ml): 220 SFU; significant SFU as a percentage of maximal peptide SFU (PBMC [2]; Patient 2, peptide 50 μg/ml): *** (***: >70%); IFN-γ ELISpot response (raw SFU) (PBMC [2]; Patient 3, peptide 50 μg/ml): 34 SFU; significant SFU as a percentage of maximal peptide SFU (PBMC [2]; Patient 3, peptide 50 μg/ml): * (*: 20-40%) |
| QYQPYPEQQQPILQQQ [avenin peptide, Genbank AAB32025 (7-22), wild-type] | 2 SFU | 11 SFU | 11 SFU | 2 SFU | 10 SFU | 23 SFU | ** (**: 40-70%) | 1 SFU | 25 SFU | 4 SFU | 2 SFU | 11 SFU | 4 SFU | 1 SFU | 3 SFU | 7 SFU | 2 SFU | 3 SFU | 79 SFU | 22 SFU | significant SFU as a percentage of maximal peptide SFU (PBMC [1]; patient P1, peptide 10 μg/ml): * (*: 20-40%); significant SFU as a percentage of maximal peptide SFU (PBMC [1]; patient P1, peptide 100 μg/ml): * (*: 20-40%); significant SFU as a percentage of maximal peptide SFU (PBMC [1]; patient P3, peptide 10 μg/ml): ** (**: 40-70%); significant SFU as a percentage of maximal peptide SFU (PBMC [1]; patient P11, peptide 10 μg/ml): (^: 10-20%); significant SFU as a percentage of maximal peptide SFU (PBMC [1]; patient P11, peptide 100 μg/ml): ** (**: 40-70%) |
| SEQYQPYPEQQQPFVQ [avenin peptide, wild-type] | 2 SFU | 2 SFU | 4 SFU | 4 SFU | 1 SFU | 16 SFU | * (*: 20-40%) | 1 SFU | 2 SFU | 4 SFU | 0 SFU | 0 SFU | 0 SFU | 0 SFU | 1 SFU | 4 SFU | 1 SFU | 1 SFU | 100 SFU | 11 SFU | – |
| pEPEQTFPEQPQLPF ([pGlu]PEQTFPEQPQLPF) [wheat peptide, AAK84780.1 (5-18) [Q5 to pyroglutamate, Q7 to E, Q12 to E], reference compound] | – | – | – | – | – | – | – | – | – | – | – | – | – | – | – | – | – | 11 SFU | 2 SFU | 33 SFU | – |
| pEPFPEQPEQPFPQP ([pGlu]PFPEQPEQPFPQP) [wheat peptide, ACO40292.1 (81-94) [Q81 to pyroglutamate, Q85 to E, Q88 to E], reference compound] | – | – | – | – | – | – | – | – | – | – | – | – | – | – | – | – | – | 5 SFU | 119 SFU | 14 SFU | – |
